Source: article PMC6720883, “In Vitro Inhibitory Effects of APINACA on Human Major Cytochrome P450, UDP-Glucuronosyltransferase Enzymes, and Drug Transporters” (Molecules, 2019)
Like-named read-outs stand apart in the source and are kept apart here.

Assays:
[1] = biological target: T1, OCT2 (Homo sapiens, UniProt O15244); assay: Uptake of [3-H]methyl-4-phenylpyridinium in HEK293-OCT2 cells; assay type: in vitro ADME; conditions: for Transport Rate (pmol/min) (mean ± SD): 0.1 μM probe substrate, n=3
T1 construct: host or cells: HEK293 (transient overexpression)
T1 sequence (O15244 1-555): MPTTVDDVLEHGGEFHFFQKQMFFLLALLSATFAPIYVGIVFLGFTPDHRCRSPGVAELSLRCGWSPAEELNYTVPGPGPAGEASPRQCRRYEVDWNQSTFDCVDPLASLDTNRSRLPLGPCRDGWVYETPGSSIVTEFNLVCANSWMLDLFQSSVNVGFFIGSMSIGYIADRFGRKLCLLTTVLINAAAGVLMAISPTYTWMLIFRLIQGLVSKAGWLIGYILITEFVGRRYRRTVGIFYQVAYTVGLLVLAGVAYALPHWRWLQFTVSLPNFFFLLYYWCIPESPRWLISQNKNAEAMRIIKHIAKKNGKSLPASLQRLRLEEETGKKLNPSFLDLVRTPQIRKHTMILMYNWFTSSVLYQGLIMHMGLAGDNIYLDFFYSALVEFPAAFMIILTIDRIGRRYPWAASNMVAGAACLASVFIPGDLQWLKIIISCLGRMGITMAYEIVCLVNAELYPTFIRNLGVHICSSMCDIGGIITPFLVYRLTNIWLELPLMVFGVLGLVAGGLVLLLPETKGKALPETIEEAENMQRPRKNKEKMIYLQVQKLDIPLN
Experimental: (§1) To examine the effects of APINACA and typical inhibitors on transporter activity, the uptake of a probe substrate into HEK293 cells overexpressing the respective solute carrier transporters was measured in the presence of APINACA (final concentrations of 0–250 μM) or typical inhibitors for 5 min. The concentrations and probe substrates were selected as follows: 0.1 μM [3-H]MPP^+ (for OCT1 and OCT2), 0.1 μM [3-H]PAH (for OAT1), 0.1 μM [3-H]ES (for OAT3 and OATP1B1), and 0.1 μM [3-H]EG (for OATP1B3).
(§2) 12.5 (Systat Software, Inc.; San Jose, CA, USA). […] 1.1 (Systat Software, Inc.).

[2] = biological target: P-glycoprotein (P-gp) (Homo sapiens, UniProt P08183); assay: B to A transport of [3-H]digoxin in LLC-PK1-MDR1 cells; conditions: for Transport Rate (pmol/min) (mean ± SD): 0.1 μM probe substrate, B to A, n=3
Experimental: The cells were seeded onto filter membranes at a density of 2 × 10^5 cells/well for 5 days with TEER values over 450 Ω·cm^2. The B to A transport of 0.1 μM [3-H]digoxin in LLC-PK1-MDR1 cells was measured by adding 1.5 mL of HBSS containing APINACA (final concentrations of 0–100 μM) on the basal side and by adding 0.5 mL of HBSS without APINACA on the apical side of the insert using protocols identical to those described above.
(§3) 1.1 (Systat Software, Inc.).

[3] = biological target: T2, OATP1B1 (Homo sapiens, UniProt Q9Y6L6); assay: Uptake of [3-H]estrone-3-sulfate in HEK293-OATP1B1 cells; assay type: in vitro ADME; conditions: for Transport Rate (pmol/min) (mean ± SD): 0.1 μM probe substrate, n=3
T2 construct: host or cells: HEK293 (transient overexpression)
T2 sequence (Q9Y6L6 1-691): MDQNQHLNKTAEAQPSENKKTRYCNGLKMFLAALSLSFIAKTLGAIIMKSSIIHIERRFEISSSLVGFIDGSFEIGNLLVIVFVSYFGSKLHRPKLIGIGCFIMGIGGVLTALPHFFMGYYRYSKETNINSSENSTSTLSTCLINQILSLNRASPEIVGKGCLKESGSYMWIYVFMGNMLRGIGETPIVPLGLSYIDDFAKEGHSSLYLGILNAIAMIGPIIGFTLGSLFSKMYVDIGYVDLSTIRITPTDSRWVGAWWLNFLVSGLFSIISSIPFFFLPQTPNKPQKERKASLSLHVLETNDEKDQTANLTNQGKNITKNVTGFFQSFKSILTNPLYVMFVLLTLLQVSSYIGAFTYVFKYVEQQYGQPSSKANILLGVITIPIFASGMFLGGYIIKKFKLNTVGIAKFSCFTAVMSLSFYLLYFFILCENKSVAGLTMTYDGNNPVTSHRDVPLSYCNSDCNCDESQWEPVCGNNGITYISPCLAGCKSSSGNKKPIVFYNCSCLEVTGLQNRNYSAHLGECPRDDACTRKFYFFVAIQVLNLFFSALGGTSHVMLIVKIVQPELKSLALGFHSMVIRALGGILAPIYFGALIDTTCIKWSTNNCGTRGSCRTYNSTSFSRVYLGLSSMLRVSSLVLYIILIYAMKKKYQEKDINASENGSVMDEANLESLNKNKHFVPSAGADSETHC
Experimental: as §1, §2

[4] = biological target: T3, OAT3 (Homo sapiens, UniProt Q8TCC7); assay: Uptake of [3-H]estrone-3-sulfate in HEK293-OAT3 cells; assay type: in vitro ADME; conditions: for Transport Rate (pmol/min) (mean ± SD): 0.1 μM probe substrate, n=3
T3 construct: host or cells: HEK293 (transient overexpression)
T3 sequence (Q8TCC7 1-542): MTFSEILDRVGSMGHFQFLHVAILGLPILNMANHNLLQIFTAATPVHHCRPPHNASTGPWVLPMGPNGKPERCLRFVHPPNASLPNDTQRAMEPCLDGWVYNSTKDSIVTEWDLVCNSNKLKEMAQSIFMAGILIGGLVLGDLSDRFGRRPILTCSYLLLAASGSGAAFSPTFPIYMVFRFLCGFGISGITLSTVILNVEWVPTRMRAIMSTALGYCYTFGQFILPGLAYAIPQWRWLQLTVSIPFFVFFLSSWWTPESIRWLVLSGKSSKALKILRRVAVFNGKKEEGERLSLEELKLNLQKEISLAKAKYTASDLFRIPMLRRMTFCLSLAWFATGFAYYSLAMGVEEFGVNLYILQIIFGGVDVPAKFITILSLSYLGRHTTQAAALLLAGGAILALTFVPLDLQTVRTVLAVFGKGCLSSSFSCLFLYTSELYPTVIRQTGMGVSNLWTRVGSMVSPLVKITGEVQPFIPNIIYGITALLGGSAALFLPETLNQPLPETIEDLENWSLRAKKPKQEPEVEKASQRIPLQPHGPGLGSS
Experimental: The concentrations and probe substrates were selected as follows: 0.1 μM [3-H]MPP^+ (for OCT1 and OCT2), 0.1 μM [3-H]PAH (for OAT1), 0.1 μM [3-H]ES (for OAT3 and OATP1B1), and 0.1 μM [3-H]EG (for OATP1B3).
as §3

[5] = biological target: T4, BCRP (Homo sapiens, UniProt Q9UNQ0); assay: B to A transport of [3-H]estrone-3-sulfate in LLC-PK1-BCRP cells; assay type: in vitro ADME; conditions: for Transport Rate (pmol/min) (mean ± SD): 0.1 μM probe substrate, B to A, n=3
T4 sequence (Q9UNQ0 1-655): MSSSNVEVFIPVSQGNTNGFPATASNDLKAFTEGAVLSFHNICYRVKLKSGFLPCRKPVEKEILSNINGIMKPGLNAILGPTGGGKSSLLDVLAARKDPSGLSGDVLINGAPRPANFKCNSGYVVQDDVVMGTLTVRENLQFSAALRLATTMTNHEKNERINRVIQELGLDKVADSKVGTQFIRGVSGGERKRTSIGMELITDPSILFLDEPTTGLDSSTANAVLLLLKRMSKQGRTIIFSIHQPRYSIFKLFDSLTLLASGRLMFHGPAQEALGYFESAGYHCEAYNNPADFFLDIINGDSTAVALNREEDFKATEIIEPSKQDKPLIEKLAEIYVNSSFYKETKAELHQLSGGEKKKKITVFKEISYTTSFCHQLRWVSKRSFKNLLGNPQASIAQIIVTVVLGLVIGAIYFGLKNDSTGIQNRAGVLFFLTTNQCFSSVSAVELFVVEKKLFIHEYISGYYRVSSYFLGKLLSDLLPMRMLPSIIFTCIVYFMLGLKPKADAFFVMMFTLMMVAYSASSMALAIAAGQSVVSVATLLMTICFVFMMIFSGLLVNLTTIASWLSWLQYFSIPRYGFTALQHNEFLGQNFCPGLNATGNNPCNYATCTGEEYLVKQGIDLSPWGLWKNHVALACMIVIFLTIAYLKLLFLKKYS

[6] = biological target: T5, OCT1 (Homo sapiens, UniProt O15245); assay: Uptake of [3-H]methyl-4-phenylpyridinium in HEK293-OCT1 cells; assay type: in vitro ADME; conditions: for Transport Rate (pmol/min) (mean ± SD): 0.1 μM probe substrate, n=3
T5 construct: host or cells: HEK293 (transient overexpression)
T5 sequence (O15245 1-554): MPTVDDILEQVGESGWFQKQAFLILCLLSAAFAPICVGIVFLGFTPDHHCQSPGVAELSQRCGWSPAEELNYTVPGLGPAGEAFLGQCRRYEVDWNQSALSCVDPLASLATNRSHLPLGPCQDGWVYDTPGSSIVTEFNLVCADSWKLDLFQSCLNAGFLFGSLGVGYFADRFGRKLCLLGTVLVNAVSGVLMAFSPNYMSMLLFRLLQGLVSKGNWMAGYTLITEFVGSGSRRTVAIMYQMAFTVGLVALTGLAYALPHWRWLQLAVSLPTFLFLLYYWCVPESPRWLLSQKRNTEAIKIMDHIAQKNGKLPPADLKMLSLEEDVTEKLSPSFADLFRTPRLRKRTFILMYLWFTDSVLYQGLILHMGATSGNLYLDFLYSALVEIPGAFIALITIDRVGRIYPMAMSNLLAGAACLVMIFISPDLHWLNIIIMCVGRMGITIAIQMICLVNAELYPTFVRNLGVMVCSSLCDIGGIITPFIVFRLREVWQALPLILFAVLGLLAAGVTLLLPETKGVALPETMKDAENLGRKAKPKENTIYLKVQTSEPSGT
Experimental: as §1, §2

[7] = biological target: T6, UGT1A9 (Homo sapiens, UniProt O60656); conditions: cited from earlier work
T6 sequence (O60656 26-530): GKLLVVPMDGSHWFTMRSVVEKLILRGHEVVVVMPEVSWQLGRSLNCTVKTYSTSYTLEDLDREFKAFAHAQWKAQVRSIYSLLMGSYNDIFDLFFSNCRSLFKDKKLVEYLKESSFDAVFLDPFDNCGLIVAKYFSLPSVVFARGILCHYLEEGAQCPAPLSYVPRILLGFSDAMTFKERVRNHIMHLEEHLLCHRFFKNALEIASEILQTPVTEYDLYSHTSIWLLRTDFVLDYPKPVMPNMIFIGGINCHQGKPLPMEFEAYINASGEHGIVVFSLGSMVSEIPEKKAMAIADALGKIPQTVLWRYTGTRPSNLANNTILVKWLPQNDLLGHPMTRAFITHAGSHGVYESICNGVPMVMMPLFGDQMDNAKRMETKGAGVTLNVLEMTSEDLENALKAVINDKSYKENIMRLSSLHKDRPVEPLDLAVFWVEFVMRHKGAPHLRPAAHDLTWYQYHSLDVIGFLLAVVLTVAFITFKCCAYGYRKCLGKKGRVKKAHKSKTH

[8] = read-out: Ki for inhibition of UGT1A9 activities, recombinant and human liver microsomal UGT1A9

Chain of P-glycoprotein (P-gp) (P08183 whole entry): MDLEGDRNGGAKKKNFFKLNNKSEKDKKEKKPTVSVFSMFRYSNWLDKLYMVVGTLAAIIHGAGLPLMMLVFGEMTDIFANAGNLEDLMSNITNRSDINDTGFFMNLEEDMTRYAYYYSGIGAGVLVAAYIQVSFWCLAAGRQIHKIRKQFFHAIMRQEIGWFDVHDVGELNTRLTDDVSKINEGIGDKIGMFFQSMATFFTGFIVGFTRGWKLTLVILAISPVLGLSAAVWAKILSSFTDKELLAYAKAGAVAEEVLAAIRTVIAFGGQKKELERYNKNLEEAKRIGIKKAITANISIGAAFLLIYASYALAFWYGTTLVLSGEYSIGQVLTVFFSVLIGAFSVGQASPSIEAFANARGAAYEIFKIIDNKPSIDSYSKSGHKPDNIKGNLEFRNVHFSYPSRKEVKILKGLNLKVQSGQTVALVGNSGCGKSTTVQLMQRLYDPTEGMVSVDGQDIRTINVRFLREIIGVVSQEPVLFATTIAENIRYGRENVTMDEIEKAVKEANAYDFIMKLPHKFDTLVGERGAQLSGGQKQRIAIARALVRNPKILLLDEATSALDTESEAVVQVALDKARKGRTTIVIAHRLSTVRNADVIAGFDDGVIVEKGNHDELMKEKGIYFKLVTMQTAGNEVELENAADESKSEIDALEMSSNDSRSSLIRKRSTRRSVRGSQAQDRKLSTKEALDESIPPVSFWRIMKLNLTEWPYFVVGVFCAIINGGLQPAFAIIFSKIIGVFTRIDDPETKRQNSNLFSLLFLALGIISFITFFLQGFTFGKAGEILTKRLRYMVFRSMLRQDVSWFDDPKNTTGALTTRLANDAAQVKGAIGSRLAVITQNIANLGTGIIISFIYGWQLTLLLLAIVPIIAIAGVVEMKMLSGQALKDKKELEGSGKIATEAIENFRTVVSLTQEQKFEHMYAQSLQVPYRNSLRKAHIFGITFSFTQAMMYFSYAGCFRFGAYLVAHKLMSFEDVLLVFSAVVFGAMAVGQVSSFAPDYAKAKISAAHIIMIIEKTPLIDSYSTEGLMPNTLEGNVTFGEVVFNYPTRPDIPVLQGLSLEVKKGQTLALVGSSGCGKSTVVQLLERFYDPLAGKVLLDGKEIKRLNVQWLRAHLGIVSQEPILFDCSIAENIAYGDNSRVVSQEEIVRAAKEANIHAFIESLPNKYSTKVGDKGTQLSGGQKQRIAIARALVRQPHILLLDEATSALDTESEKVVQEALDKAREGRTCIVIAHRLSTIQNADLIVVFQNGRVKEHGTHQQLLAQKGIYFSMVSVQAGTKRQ

CN/C(=N/CCSCc1nc[nH]c1C)NC#N [Cimetidine]
IC50 ([1]; HEK293-OCT2 cells, 0.1 μM [3-H]methyl-4-phenylpyridinium, 5 min uptake, read-out: IC50 for inhibition of OCT2 transport): 197000 nM

C[C@H]1O[C@@H](O[C@H]2[C@@H](O)C[C@H](O[C@H]3[C@@H](O)C[C@H](O[C@H]4CC[C@@]5(C)[C@H](CC[C@@H]6[C@@H]5C[C@@H](O)[C@]5(C)[C@@H](C7=CC(=O)OC7)CC[C@]65O)C4)O[C@@H]3C)O[C@@H]2C)C[C@H](O)[C@@H]1O [Digoxin]
Fold Increase of transport rate ([2]; LLC-PK1-MDR1 versus Mock): 7.3 | Transport Rate (pmol/min) (mean ± SD) ([2]; LLC-PK1 Mock cells (comparison for MDR1)): 0.14 ± 0.02 pmol/min | Transport Rate (pmol/min) (mean ± SD) ([2]; LLC-PK1 cells overexpressing MDR1 (P-gp)): 1.06 ± 0.07 pmol/min

C[C@]12CC[C@@H]3c4ccc(OS(=O)(=O)O)cc4CC[C@H]3[C@@H]1CCC2=O [Estrone-3-sulfate]
Fold Increase of transport rate ([3]; HEK293-OATP1B1 versus Mock): 16.5 | Transport Rate (pmol/min) (mean ± SD) ([3]; HEK293 Mock cells (comparison for OATP1B1)): 0.76 ± 0.04 pmol/min | Transport Rate (pmol/min) (mean ± SD) ([3]; HEK293 cells overexpressing OATP1B1): 12.58 ± 1.57 pmol/min | Fold Increase of transport rate ([4]; HEK293-OAT3 versus Mock): 15.3 | Transport Rate (pmol/min) (mean ± SD) ([4]; HEK293 Mock cells (comparison for OAT3)): 0.98 ± 0.20 pmol/min | Transport Rate (pmol/min) (mean ± SD) ([4]; HEK293 cells overexpressing OAT3): 14.96 ± 3.09 pmol/min | Fold Increase of transport rate ([5]; LLC-PK1-BCRP versus Mock): 4.7 | Transport Rate (pmol/min) (mean ± SD) ([5]; LLC-PK1 Mock cells (comparison for BCRP)): 0.44 ± 0.07 pmol/min | Transport Rate (pmol/min) (mean ± SD) ([5]; LLC-PK1 cells overexpressing BCRP): 2.09 ± 0.12 pmol/min

C[n+]1ccc(-c2ccccc2)cc1 [Methyl-4-phenylpyridinium]
Fold Increase of transport rate ([6]; HEK293-OCT1 versus Mock): 17.1 | Transport Rate (pmol/min) (mean ± SD) ([6]; HEK293 Mock cells (comparison for OCT1)): 0.60 ± 0.09 pmol/min | Transport Rate (pmol/min) (mean ± SD) ([6]; HEK293 cells overexpressing OCT1): 10.24 ± 0.98 pmol/min | Fold Increase of transport rate ([1]; HEK293-OCT2 versus Mock): 25.5 | Transport Rate (pmol/min) (mean ± SD) ([1]; HEK293 Mock cells (comparison for OCT2)): 0.66 ± 0.11 pmol/min | Transport Rate (pmol/min) (mean ± SD) ([1]; HEK293 cells overexpressing OCT2): 16.78 ± 0.43 pmol/min

Cc1ccc([C@@H]2O[C@H](CO)[C@@H](O)[C@H](O)[C@H]2O)cc1Cc1ccc(-c2ccc(F)cc2)s1 [canagliflozin]
Ki [7, 8]: 1400 to 3000 nM

CCOc1ccc(Cc2cc([C@@H]3O[C@H](CO)[C@@H](O)[C@H](O)[C@H]3O)ccc2Cl)cc1 [dapagliflozin]
Ki [7, 8]: 11000 to 15000 nM

CNC(=O)c1cc(Oc2ccc(NC(=O)Nc3ccc(Cl)c(C(F)(F)F)c3)c(F)c2)ccn1 [regorafenib]
Ki [7]: 700 nM

CNC(=O)c1cc(Oc2ccc(NC(=O)Nc3ccc(Cl)c(C(F)(F)F)c3)cc2)ccn1 [sorafenib]
Ki [7, 8]: 700 nM

O=C(O)c1cc(/N=N/c2ccc(S(=O)(=O)Nc3ccccn3)cc2)ccc1O [sulfasalazine]
IC50 ([5]; human, LLC-PK1-BCRP cell monolayers on filter membranes, probe [3H]estrone-3-sulfate (0.1 μM), LLC-PK1-BCRP cells, B to A transport of 0.1 μM [3-H]estrone-3-sulfate, read-out: IC50 for inhibition of BCRP transport): 390 nM
